As usually defined, the melting point is the temperature, or range, at which the solid turns liquid. `CC(C)NC(=O)C(O)C(Oc1ccccc1)c1ccc(Cl)cc1` (stereo unspecified) gave a melting point of 175 to 177 °C. In the case of `NS(=O)(=O)c1cccc(-c2cc(-c3nc(-c4ccc(Cl)cc4)cc(C(F)(F)F)n3)ccn2)c1`, the melting point turned out to be 182 °C. In turn, `CC(C)(C)c1cc(SCCC(=O)O)cc(C(C)(C)C)c1O` came in with a melting point of 108 to 110 °C.

For the compound `COc1cc(C(=O)N(C(C)C)C2CCCCC2)ccc1Cn1c(CO)nc2cccnc21`, the melting point is 124 to 126 °C. Next, `C[C@@H]1N(c2ccc(C#N)c(C(F)(F)F)c2)C(=O)C[C@@]1(O)C1CC1`: 84 to 90 °C; `Cc1cc(N(C)[C@H]2CN(C(=O)CC#N)CC[C@H]2C)n2ncnc2n1`: 119 °C; `CSc1nc(NCc2ccc(-c3ccccn3)cc2)n2ncc(C(C)C)c2n1`: 136 to 138 °C. As to `Cc1ccc(Cl)cc1N1CCCN(C)C1=S`, the melting point lay within 143 to 145 °C. The figure for `O=c1[nH]c(CO)nc2nc(O)cnc12` is above 300 °C; for `CN(C)C(=O)Nc1cccc(C#N)n1` it is 125 °C. Next, `Cc1c(Br)c(=O)n(C2CCCC2)c2nc(Nc3ccc(N4CCNCC4)nc3)ncc12`: 290 °C. The figure for `NC(=O)c1nc(-c2cccc(O)c2)nc2c1[nH]c(=O)n2C1CCc2ccccc21` (stereo unspecified) is 341 to 343 °C; for `CC(=O)Nc1ncc(Sc2ccc(NS(C)(=O)=O)cc2)s1` it is 236 to 239 °C; for `CC(C)c1cccc(C(C)C)c1N=C(Nc1c(C(C)C)cccc1C(C)C)ON=C1CCCCC1` it is 150 to 152 °C.

Consider `FC(F)(F)c1ccc2nc(N3CCN(c4ncncc4Cl)CC3)[nH]c2c1`, for which the melting point fell in the range of 66.6 to 66.7 °C. In turn, `N#CCCOc1ccc(Oc2ccccc2)cc1` displayed a melting point of 81 to 83 °C.

`N#Cc1ccc(C(=O)OC2CCN(Cc3ccccc3)CC2)cc1` came in with a melting point of 110 to 111 °C. For the compound `Fc1ccc(C2=Nc3cccnc3Nc3ccccc32)cc1`, the melting point fell in the range of 203 to 205 °C. The figure for `Cc1cc(C#CC2CC2)cc(C)c1Oc1ccc(N)c(Nc2ccc(C#N)cc2)n1` is 82 to 85 °C; for `Cc1nc(N2CCN(C)CC2)nc(N)c1-c1cccc(Br)c1` it is 120 to 122 °C; for `CNc1cc(N2CCC(c3ccccc3)CC2)nc(C)n1` it is 186 to 188 °C. As to `CC(C)(C)c1cc(C(=O)Nc2nc(C(=O)O)cs2)cc(C(C)(C)C)c1O`, the melting point fell in the range of 291 to 293 °C.

`CC(=O)CC(=O)Nc1cccc(OC(=O)NC2CCCCC2)c1`: the melting point turned out to be 159 °C. Compound `CC1CN(c2ncc(Br)cc2C=O)CC1C` (stereo unspecified) returned a melting point of 98.5 to 99.5 °C. The figure for `COC(=O)c1ccc(NC(C)=O)c(C=NO)c1` is 200 to 203 °C; for `O=C(Nc1ccc(I)cc1)N[C@H]1C[C@H](C(=O)O)Nc2cc(Cl)cc(Cl)c21` (relative stereo) it is 224 to 226 °C; for `CNc1nc(C(=O)c2ccc([N+](=O)[O-])c(OC)c2)n2ccccc12` it is 208 °C. The figure for `FC(F)(F)Oc1ccc2[nH]c(-c3ccco3)nc2c1` is 165 to 167 °C; for `CC(C)(O)c1cccc(OCc2nc3cc(F)ccc3s2)c1` it is 124 to 125 °C; for `CCOc1cc(OCC(=O)OCc2ccccc2)cc2c1C(=O)N(COC(=O)c1c(Cl)cccc1Cl)S2(=O)=O` it is 157 to 158 °C.

On to `O=CNc1nc(CSc2ccncc2)cs1`, for which the melting point was in the range of 182 to 184 °C. Regarding `COCCOC[C@H](CC1(C(=O)N[C@H]2CC[C@@H](C(=O)O)CC2)CCCC1)C(=O)O`, the melting point was 108 °C.

`COc1cccc(CN2CCCc3cc(O)c(OC)cc3C2)c1` yielded a melting point of 114 to 115 °C. Next, `CC(C)n1nc(-c2cc(I)c(N)nc2-c2ccccc2)ccc1=O`: 196 to 197 °C; `O=C(Nc1ccc(S(=O)(=O)c2ccccc2)cc1)N[C@@H](Cc1ccc(NC(=O)c2c(Cl)cccc2Cl)cc1)C(=O)O`: 222 °C. Next, `Cc1ccccc1CNC(=O)c1cc(C)c([N+](=O)[O-])c(C)c1`: 202 to 203 °C. For the compound `COc1cccc(-c2nc(Cl)nc(Nc3cccc([N+](=O)[O-])c3)n2)c1`, the melting point stood at 155 °C. The figure for `CC(C)=CC(O)C(Br)(Br)Br` (stereo unspecified) is 81.5 to 82 °C. Next, `CC(C)(C)OC(=O)CC1CCC(=O)Nc2ccccc21` (stereo unspecified): 101 to 103 °C; `CC(C)(C)c1cc(-c2n[nH]c(=S)s2)cc(C(C)(C)C)c1O`: 190 to 191 °C. Next, `O=C1NCCc2c(OCC3CO3)cccc21` (stereo unspecified): 165 to 166 °C.

Turning to `COC(=O)c1c(S(=O)(=O)NC(=O)Nc2nc(C)nc(OC)n2)c(C)nn1C`, the melting point lay within 195 to 198 °C. Regarding `COc1cc(-c2nn(C)c(C#N)c2C)c(F)cc1Cl`, the melting point lay in the range of 155 to 156 °C. The figure for `CC(C)n1nc(-c2cc(C#N)c(Cl)nc2-c2ccccc2)ccc1=O` is 191 to 192 °C; for `COc1ccc(O)c(C(=O)Nc2cc(Cl)cc(Cl)c2)c1` it is 230 to 232 °C; for `O=C(OC1CCCCCC1=O)c1ccccc1` (stereo unspecified) it is 59 to 60 °C.

For the compound `FC(F)C(F)(F)Oc1cccc(Nc2nccc(-c3ccncc3)n2)c1`, the melting point was 191 to 192 °C. Next, `COc1cc2ncnc(N3CCc4cc(F)ccc43)c2cc1OC`: 190 to 191 °C.

In turn, `Cc1cnc2c(c1)COP(=S)(N(C)C)O2` (stereo unspecified) showed a melting point of 101 to 102 °C. The figure for `COc1ccc(-c2ccc3c(C(N)=O)nn(-c4ccc(S(N)(=O)=O)cc4)c3c2)cc1` is 258 to 259 °C; for `Cc1cc(C)cc(OC(=O)C(c2ccccc2)N2CCN(C3CCN(C(=O)c4cc(C(F)(F)F)cc(C(F)(F)F)c4)C(Cc4ccccc4)C3)CC2)c1` (stereo unspecified) it is 88.1 °C; for `CCc1nc2cc(Nc3nccc(-c4ccc(N5CCN(CC)CC5)nc4)n3)ccc2o1` it is 174 to 176 °C. Next, `CCCCSc1ccc(C=O)cc1[N+](=O)[O-]`: 93 °C; `NC(=O)c1cnccc1-c1ccccc1C(=O)N1Cc2ccccc2Cc2ccccc21`: 217 to 220 °C. The figure for `CCn1cc(-c2ccccc2)c(=O)c(-c2ccccc2)n1` is 124 to 125 °C; for `CC1(C)OC(=O)Nc2ccc(-c3cc(F)cc(Br)c3)cc21` it is 182 to 183 °C; for `O=C(O)c1cccc(-c2nc(-c3ccc(C(F)(F)F)cc3)co2)c1` it is 206 to 208 °C.

The compound `CC(C)(C)OC(=O)N1CCn2ccc(C#N)c2C1` registered a melting point of 97 °C. The figure for `CNc1c(C)c(C)c(OC(C)=O)c(C)c1[N+](=O)[O-]` is 143 to 146 °C; for `CC(O)c1cccc(OCc2cccc(C(=O)O)c2)c1` (stereo unspecified) it is 115 to 117 °C; for `C#Cc1ccc(OC)c(C#N)c1` it is 100 to 101 °C. Next, `Cc1cc2nc(NC3=NCCN3)[nH]c2cc1C`: 266 °C; `COC(=O)c1sc(C)c(C)c1O`: 52 to 54 °C; `CN1CCCC(c2cccc3[nH]ccc23)C1` (stereo unspecified): 151 °C.

The compound `C=CCOc1ccc(C(=O)c2ccccc2)cc1` gave a melting point of 71 °C. Next, `CN(CC(=O)O)C(=O)CCc1cccc(-c2nc(=O)c3ccccc3s2)n1`: 194 to 195 °C. `FC1CCC2C3Cc4ccccc4C2(CCN3)C1` (stereo unspecified) showed a melting point of 93 to 97 °C. Next, `Cc1cn(N=Cc2ccccc2)cn1`: 91 to 93 °C; `Cc1ccc2c(c1O)N=CC1CCCN1C2=O` (stereo unspecified): 148 to 150 °C; `CCOC(=O)N1CCCC(Nc2nc3ccccc3[nH]2)CC1` (stereo unspecified): 175 °C.

In turn, `N#Cc1cc(C(O)CNC2CCCC2)ccc1N` (stereo unspecified) returned a melting point of 158 to 160 °C.

With `CCOC(=O)CC(=O)c1cccc([N+](=O)[O-])c1C`, the melting point was 50 to 51 °C. Next, `Cc1nc2c3c(ccc2n1C)[C@@H](OCC(F)F)[C@H](O)[C@@H](c1ccccc1)O3`: 249 °C; `O=[N+]([O-])c1cc(-c2ccncc2)ccc1Cl`: 110 to 111 °C; `N#Cc1ccccc1Cn1cc(C(=O)C(=O)NC2=CC(=O)OC2)c2ccccc21`: 229 to 231 °C.

Consider `COc1cccc(Cc2ccc3[nH]c4cnn(C)c4c(=O)c3c2)c1`, for which the melting point lay in the range of 246 to 250 °C.

Consider `COC(=O)c1ccc(OCCc2c[nH]cn2)cc1`, for which the melting point lay within 116 to 118 °C.

With `CC1(C)C(=O)Nc2cc(C(=O)Nc3ccccc3)ccc21`, the melting point lay within 205 to 206 °C. The figure for `Oc1ccc(Sc2cnnc3ccccc23)cc1` is 238 °C; for `Cc1cc(-n2ccnc2)c2cccc(OCc3c(Cl)ccc(S(=O)(=O)N4CCCC4C(=O)NCC4CCCCN4C(=O)CC(=O)O)c3Cl)c2n1` (stereo unspecified) it is 130 °C; for `COc1ncc(C(=O)Cc2c(Cl)cncc2Cl)cc1OC1CCCC1` it is 118 to 119 °C.

In turn, `COc1ccc(S(=O)(=O)N2CCc3cccc(-c4ccc(F)nc4)c32)cc1` registered a melting point of 140 to 142 °C.

With `COC(=O)c1cc(N)c(F)c(-c2ccc(Cl)cc2)n1`, the melting point was in the range of 177 to 179 °C. The figure for `CN(C)S(=O)(=O)NCc1ccc(C(c2cc(F)ccc2F)S(=O)(=O)c2ccc(Cl)cc2)nc1` (stereo unspecified) is 177 to 178 °C. Next, `c1ccc(Sc2cc(-c3ccccc3)n[nH]2)cc1`: 99 to 100 °C; `N#Cc1c(N2CCCCC2)cc(-c2ccccc2)c2c1Cc1ccccc1-2`: 140 to 141 °C. The figure for `CC[C@@H](c1ccccc1)N(Cc1ccc(S(C)(=O)=O)cc1)S(=O)(=O)c1ccc(Cl)cc1` is 61 to 63 °C; for `COc1ccc(Cc2nc3cc(Cl)cc(Br)c3o2)cc1OC` it is 123 to 124 °C. On to `OC1CCN(c2nnc(-c3ccc(Cl)cc3)c(-c3ccc(Cl)cc3)n2)CC1`, for which the melting point fell in the range of 102 to 105 °C. Regarding `CCOc1nc2ccccc2nc1C(=O)Nc1ccc(OCCCCN2CCc3cc(OC)c(OC)cc3C2)cc1`, the melting point was 182 °C.

Compound `CCNC(=O)COC1CCN(Cc2cnc3cc(NC(=O)c4ccc(-c5ccc(F)cc5)cc4)ccc3c2)CC1` yielded a melting point of 228 to 230 °C.

The values above are taken from a melting point compilation (Tetko et al.; mined from patent text by program, amines drawn as free bases though some values may be those of a salt).
